These results are taken from patent US8937091B2 (Japan Science and Technology Agency, priority 2009, dated 2015).

A value given as a limit tells only on which side of the number the result lay.

The test system of experiment [1] is SOCE (store operated calcium entry) in CHO cells. The experiment is described as follows: Assay of SOCE (store operated calcium entry)-inhibiting action. The settings on record: Cricetulus griseus, CHO; for inhibition at 10 µM: test compound 10 μmol; for inhibition at 10 µM / inhibition at 30 µM / inhibition at 100 µM: CHO cells, thapsigargin, read-out: SOCE level (percentage of inhibition); for inhibition at 30 µM: test compound 30 μmol; for inhibition at 100 µM: test compound 100 μmol. Format: cell-based, Chinese hamster. The procedure, abridged:
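CHO cells in calcium-free BSS received compound, then 1 μM thapsigargin 2 min later to deplete stores; after 9 min, 2 mM calcium chloride (final) added. Percent inhibition of the rise in intracellular calcium determined at various compound concentrations.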

Experiment [2] has as its system IICR (IP3 induced calcium release) in CHO cells. The experiment is described as follows: Assay of IICR (IP3 induced calcium release)-inhibiting action. The settings on record: for inhibition at 10 µM / inhibition at 30 µM / inhibition at 100 µM / IICR level (percentage of inhibition): CHO cells, 10 μM ATP; for inhibition at 10 µM / inhibition at 30 µM / inhibition at 100 µM: read-out: IICR level (percentage of inhibition). It counts as cell-based, Chinese hamster. A digest of the protocol:
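Inhibition (%) of the intracellular calcium increase triggered by 10 μM ATP, measured in CHO cells in BSS with calcium. Compound given 1 min after the buffer exchange and 2 min before ATP; values reported per compound concentration.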

Where [3] appears, read: Cricetulus griseus, CHO, test compound 10 μmol.
The mark [4] stands for this setting: Cricetulus griseus, CHO, test compound 30 μmol.
The mark [5] stands for this setting: Cricetulus griseus, CHO, test compound 100 μmol.

With `NCCCCNCCC(=O)c1ccc2ccccc2c1` [Example 118, 2-(N-aminobutyl)aminoethyl-2-naphthylketone], the inhibition at 10 µM in experiment [1] and in experiment [2] (setting [3]) was 0% each time. Also, the inhibition at 30 µM in experiment [1] and in experiment [2] (setting [4]) was 0% in each case. Besides, the inhibition at 100 µM in experiment [1] and in experiment [2] (setting [5]) was 0% each time.
Consider `NCCCNCCCCNCCC(=O)c1ccc2ccccc2c1` [Example 119, 2-(N-aminopropylaminobutyl)aminoethyl-2-naphthylketone], for which the inhibition at 10 µM in experiment [1] and in experiment [2] (setting [3]) was 0% throughout. In addition, the inhibition at 30 µM in experiment [1] and in experiment [2] (setting [4]) was 0% each time. Also, the inhibition at 100 µM in experiment [1] and in experiment [2] (setting [5]) was 0% in each case.
For the molecule `CC(C)N(CCC(=O)c1nccs1)Cc1ccccc1` [Example 120, 2-(N-isopropylbenzyl)aminoethyl-2-thiazolylketone], the figures for the inhibition at 10 µM in experiment [1] and in experiment [2] (setting [3]) were 0% and 10%, respectively. Further, the inhibition (in general, the relative decrease from the control value, in per cent) at 30 µM in experiment [1] was 0%; in experiment [2] (setting [4]), 90%. For the same molecule, the results for the inhibition at 100 µM in experiment [1] and in experiment [2] (setting [5]) were 20% and 100%, respectively.
Take `CC(C)(C)N(CCC(=O)c1ccco1)Cc1ccccc1` [Example 121, 2-(N-t-butylbenzyl)aminoethyl-2-furylketone]: the inhibition at 10 µM in experiment [1] was determined as 0%; in experiment [2] (setting [3]), 10%. Moreover, the inhibition at 30 µM is 0% in experiment [1] and 50% in experiment [2] (setting [4]). For the same molecule, the inhibition at 100 µM in experiment [1] was found to be 0%; in experiment [2] (setting [5]), 100%. The IC50 – broadly, the midpoint of a concentration-inhibition curve – in experiment [1] (Table 1) was > 100 µM; in experiment [2] (Cricetulus griseus, CHO, Table 1), 30 µM.
For `CC(C)(C)N(CCO)CCC(=O)c1nccs1` [Example 122, 2-(N-t-butylhydroxyethyl)aminoethyl-2-thiazolylketone], the inhibition at 10 µM in experiment [1] and in experiment [2] (setting [3]) was 0% each time. Also, the inhibition at 30 µM in experiment [1] and in experiment [2] (setting [4]) was 0% each time. The inhibition at 100 µM in experiment [1] and in experiment [2] (setting [5]) was 0% throughout.
`CC(C)(C)N(CCO)CCC(=O)c1ccco1` [Example 123, 2-(N-t-butylhydroxyethyl)aminoethyl-2-furylketone]: the inhibition at 10 µM came to 0% in experiment [1] and 20% in experiment [2] (setting [3]). Also, the inhibition at 30 µM in experiment [1] amounted to 10%; in experiment [2] (setting [4]), 20%. Further, the results for the inhibition at 100 µM in experiment [1] and in experiment [2] (setting [5]) were 20% and 70%, respectively.
As to `O=C(CCN(CCO)Cc1ccccc1)c1ccco1` [Example 124, 2-(N-hydroxyethylbenzyl)aminoethyl-2-furylketone], the inhibition at 10 µM was 0% in experiment [1] and 20% in experiment [2] (setting [3]). The inhibition at 30 µM was determined as 0% in experiment [1] and 20% in experiment [2] (setting [4]). Further, the inhibition at 100 µM in experiment [1] worked out at 0%; in experiment [2] (setting [5]) it was 70%.
With `CN(CCC(=O)c1cccs1)Cc1ccccc1` [Example 125, 2-(N-methylbenzyl)aminoethyl-2-thiophenylketone], the inhibition at 10 µM in experiment [1] and in experiment [2] (setting [3]) was 0% throughout. The figures for the inhibition at 30 µM in experiment [1] and in experiment [2] (setting [4]) were 0% and 30%, respectively. The figures for the inhibition at 100 µM in experiment [1] and in experiment [2] (setting [5]) were 0% and 70%, respectively.
Consider `CN(CCO)CCC(=O)c1cccs1` [Example 126, 2-(N-methylhydroxyethyl)aminoethyl-2-thiophenylketone], for which the values for the inhibition at 10 µM in experiment [1] and in experiment [2] (setting [3]) were 0% and 20%, respectively. Besides, the figures for the inhibition at 30 µM in experiment [1] and in experiment [2] (setting [4]) were 0% and 20%, respectively. Moreover, the results for the inhibition at 100 µM in experiment [1] and in experiment [2] (setting [5]) were 0% and 70%, respectively.
In the case of `O=C(CCN1CCCCC1CO)c1cccs1` (centres unmarked) [Example 127], the inhibition at 10 µM in experiment [1] was found to be 0%; in experiment [2] (setting [3]) it was 20%. Also, the inhibition at 30 µM was found to be 0% in experiment [1] and 20% in experiment [2] (setting [4]). Also, the inhibition at 100 µM in experiment [1] was found to be 10%; in experiment [2] (setting [5]), 50%.
Regarding `O=C(CCNc1ccccc1S)c1cccs1` [Example 128, 2-(2-mercaptophenyl)aminoethylthiophenylketone], the inhibition at 10 µM in experiment [1] and in experiment [2] (setting [3]) was 0% throughout. Further, the inhibition at 30 µM in experiment [1] turned out to be 0%; in experiment [2] (setting [4]) it was 30%. In addition, the inhibition at 100 µM in experiment [1] came out at 20%; in experiment [2] (setting [5]) it was 10%.
On to `O=C(CCN(CCO)Cc1ccccc1)c1cnccn1` [Example 129, 2-(N-benzylhydroxyethyl)aminoethyl-2-pyrazylketone], for which the inhibition at 10 µM in experiment [1] and in experiment [2] (setting [3]) was 0% throughout. Besides, the inhibition at 30 µM in experiment [1] was 0%; in experiment [2] (setting [4]) it was 50%. Besides, the figures for the inhibition at 100 µM in experiment [1] and in experiment [2] (setting [5]) were 0% and 90%, respectively.
On to `O=C(CCN(CCO)CCO)c1ccco1` [Example 130, 2-(N-bis-hydroxyethyl)aminoethyl-2-furylketone], for which, in experiment [1], the inhibition at 10 µM was 0%, the inhibition at 30 µM worked out at 0% and the inhibition at 100 µM came out at 0%. For the same molecule, the “IICR level (percentage of inhibition)” value in experiment [2] (test compound 10 μmol) is recorded as 20%. Moreover, the “IICR level (percentage of inhibition)” value in experiment [2] (test compound 30 μmol) was found to be 20%. The “IICR level (percentage of inhibition)” value in experiment [2] (test compound 100 μmol) is listed as 50%.
As to `CN1CCN(CCC(=O)c2ccccc2)CC1` [Example 131, 2-(N-methylpiperazyl)ethylphenylketone], the inhibition at 10 µM was found to be 0% in experiment [1] and 30% in experiment [2] (setting [3]). The results for the inhibition at 30 µM in experiment [1] and in experiment [2] (setting [4]) were 0% and 20%, respectively. Besides, the inhibition at 100 µM worked out at 0% in experiment [1] and 50% in experiment [2] (setting [5]).
In the case of `O=C(CCN(CCO)c1ccccc1)c1ccco1` [Example 132, 2-(N-phenylhydroxyethyl)aminoethyl-2-furylketone], the inhibition at 10 µM in experiment [1] amounted to 0%; in experiment [2] (setting [3]), 10%. The inhibition at 30 µM in experiment [1] was found to be 0%; in experiment [2] (setting [4]), 20%. In addition, the inhibition at 100 µM in experiment [1] amounted to 0%; in experiment [2] (setting [5]) it was 20%.
As for `O=C(CCN(CCO)c1ccccc1)c1ccccc1` [Example 133, 2-(N-phenylhydroxyethyl)aminoethylphenylketone], the inhibition at 10 µM in experiment [1] was 0%; in experiment [2] (setting [3]) it was 20%. Also, the figures for the inhibition at 30 µM in experiment [1] and in experiment [2] (setting [4]) were 0% and 20%, respectively. Also, the inhibition at 100 µM in experiment [1] was determined as 0%; in experiment [2] (setting [5]), 30%.
Turning to `O=C(CCN(CCO)c1ccccc1)c1ccncc1` [Example 134, 2-(N-phenylhydroxyethyl)aminoethyl-4-pyridylketone], the inhibition at 10 µM in experiment [1] turned out to be 0%; in experiment [2] (setting [3]), 20%. Moreover, the inhibition at 30 µM in experiment [1] is 0%; in experiment [2] (setting [4]) it was 20%. The inhibition at 100 µM is 0% in experiment [1] and 30% in experiment [2] (setting [5]).
As to `O=C(CCN(CCO)Cc1ccccc1)c1ccncc1` [Example 135, 2-(N-benzylhydroxyethyl)aminoethyl-4-pyridylketone], the inhibition at 10 µM is 0% in experiment [1] and 20% in experiment [2] (setting [3]). In addition, the inhibition at 30 µM in experiment [1] came out at 0%; in experiment [2] (setting [4]) it was 10%. Besides, the inhibition at 100 µM in experiment [1] and in experiment [2] (setting [5]) was 0% in each case.
